Here are results for four molecules from patent US20130210042A1, “DIAGNOSTIC AND PROGNOSTIC METHOD FOR HUMAN TAUOPATHIES” (CONSIGLIO NAZIONALE DELLE RICERCHE, priority 2010, published 2013).

Experiment [1] relates to AD patients. To be noted: cited from earlier work.
In experiment [2] the test system is dbAMPc/NGF-differentiated human SH-SY5Y human neuroblastoma cells. Put plainly: Generation of the 20-22 kDa NH2 tau fragment in differentiated SH-SY5Y exposed to soluble AD brain extracts (Western blot). Format: cell-based. To be noted: 12 h with 1 mg/ml AD brain extract. An excerpt: FIG. 5. The soluble extracts from AD brain homogenates containing Aβ oligomers induce neurotoxicity and production of the NH2-derived 20-22 kDa tau fragment through the caspase-(s) activation in human differentiated SY5Y. A-B): Biochemical characterization of native Aβ oligomers enriched by crude soluble proteins extracts of AD and age-matched non-demented control brain prepared as reported by, which contained almost no Aβ monomers since the ability of these low-molecular weight species to pass readily through the 10 kDa cutoff filters under the conditions used here. Samples extracted from two different AD brain specimens were pooled and retentates—obtained by 10 kDa cutoff filters (Vivaspin 4 VSO403)—were added to the cell culture at a final concentration of 1 mg/ml. […] Unheated samples were applied on the gel in two different lanes and after transfer the membrane was cut in two equal parts and analyzed in parallel. […] Each data point is the mean±SE (bars) of five independent experiments and statistically significant differences were calculated by paired t-Student's test (*p<0.05; ***p<0.001). […] Each data point is the mean±SE (bars) of three independent experiments and statistically significant differences were calculated by paired t-Student's test (*p<0.05; **p<0.01; ***p<0.001). […]

Experiment [3] concerns neuronal mitochondria. Conditions: cited from earlier work; for intracellular ATP bioavailability: ATP synthesized by neuronal mitochondria.
For experiment [4], the system named is adenine nucleotide translocator (ANT-1). To be noted: in vitro; cited from earlier work.
Experiment [5] addresses T1, 20-22 kDa NH2-truncated tau fragment (human, UniProt P10636 26-547).
T1 construct: Endogenous fragment in human synaptosomes, mitochondria, CSF and STS-treated SH-SY5Y cells; Exact limits not proven; also called NH2htau; NH2 htau fragment
Put plainly: co-immunoprecipitation from synaptosomes with CCP-NH2 tau as bait antibody. The method, then: A): Western blotting comparing synaptosomal proteins (500 μg) from ND, AD (ND, AD) subjects immunoprecipitated (IP) and probed (WB) with CCP—NH₂ tau (NH₂ aa 26-36 of human tau) antiserum. Total proteins extracts (70 μg unbound) from STS-treated (6hSY5Y) neuronal human SY5Y and from AD synaptosomal proteins (INPUT) were also loaded for lane and included as positive internal control of electrophoretic mobility and immunoprecipitation efficiency. It is noteworthy that a NH₂-tau fragment around 20-22 kDa (arrow), but not-full-length proteins running at 55-75 kDa(arrowheads), was efficiently immunoprecipitated by CCP—NH₂ tau antiserum on synaptic-enriched fractions from AD. The asterisk indicate immunoglobulin light chains in immunoprecipitates and no significant cross-reactions with human intact tau iso forms was found in total, un-precipitated proteins. B-F): In C), Western blotting analysis comparing synaptosomal proteins (500 μg) from ND, AD (ND, AD) subjects immunoprecipitated (IP) with CCP—NH₂ tau (NH₂ aa26-36 of human tau) antiserum and probed (WB) with ANT-1 antibody (the least C-terminal 12 amino acids of human neuronal ANT-1). […]
Next the authors analyzed whether ANT-1—the neuronal-specific isoform of ANT protein—was a mitochondrial target of the NH₂htau fragment.

Like-named read-outs stand apart in the source and are kept apart here. Peptide text beside a SMILES is read from it. * marks the point of attachment. Cbz = O=C(OCc1ccccc1)*; CH2F = FC*

T1 sequence (P10636 other isoform, or with tags, fused parts or gaps limits assumed): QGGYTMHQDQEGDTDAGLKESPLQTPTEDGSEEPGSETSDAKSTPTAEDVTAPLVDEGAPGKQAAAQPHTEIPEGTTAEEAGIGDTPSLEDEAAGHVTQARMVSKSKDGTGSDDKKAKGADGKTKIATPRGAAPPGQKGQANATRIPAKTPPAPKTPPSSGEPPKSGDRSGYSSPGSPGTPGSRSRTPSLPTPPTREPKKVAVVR

With `Cc1ccc2c(c1)c1c(n2CCc2ccc(C)nc2)CCN(C)C1` [Dimebon], in experiment [1], the “duration of improved cognitive performance in AD patients” value is on record as 12-18 months.
With `COC(=O)C[C@H](NC(=O)[C@H](C)NC(=O)[C@@H](NC(=O)OCc1ccccc1)C(C)C)C(=O)CF` [Z-VADfmk] (Cbz-Val-Ala-Asp(OMe)-CH2F), in experiment [2] (100 μM Z-VADfmk or 20 μM MDL28170), the “appearance of 20-22 kDa NH2 tau fragment after pre-incubation with protease inhibitor” value is recorded as “significantly reduced the appearance of 20-22 kDa NH2 tau fragment”. Also, in experiment [2] (100 μM Z-VADfmk), the “caspase-3 activation (cleaved caspase-3 Western blot)” value is on record as “blocking the caspase-3 activation”.
Regarding “NH2-26-44 peptide: synthesized NH2-26-44 tau peptide, minimal active moiety of the NH2-26-230 human tau fragment (QGGYTMHQDQEGDTDAGLK)”, the figures for the “intracellular ATP bioavailability” value in experiment [3] and in experiment [3] (listed as NH226-44 tau) were “reduces the intracellular ATP bioavailability” and “reduced the intracellular bioavailability of ATP”, respectively. In addition, in experiment [3] (in vitro), the mitochondrial oxidative phosphorylation result was “impairs the mitochondrial oxidative phosphorylation”. The “ANT-1-mediated ADP/ATP exchange” value in experiment [4] is “specifically inhibited the ANT-1-mediated ADP/ATP exchange in a non-competitive manner”.

B1: MnSOD-II (enzyme, human, UniProt P04179 25-222, looked up)
chain: KHSLPDLPYDYGALEPHINAQIMQLHHSKHHAAYVNNLNVTEEKYQEALAKGDVTAQIALQPALKFNGGGHINHSIFWTNLSPNGGGEPKGELLEAIKRDFGSFDKFKEKLTAASVGVQGSGWGWLGFNKERGHLQIAACPNQDPLQGTTGLIPLLGIDVWEHAYYLQYKNVRPDYLKAIWNVINWENVTERYMACKK
notes: also called mitochondrial superoxide dismutase
In the case of B1, the binding result in experiment [5] is reported as “no binding”.
